Measurements reported in patent publication EP0193944A1, “Derivatives of 5-fluorouracil” (Nippon Kayaku Kabushiki Kaisha, priority 1985, dated 1986).

System: murine leukemia P388
Test: Antitumor effect to murine leukemia P388 (survival of implanted mice, oral dosing)
Assay type: in vivo
Details: for Survival Rate (T/C x 100): orally once daily for 5 consecutive days, female CDF1-SLC mice, P 388 cells implanted subcutaneously
Procedure: Antitumor effect to murine leukemia P388. • Test compounds: 5-FU and compound No.1 (1-(4,4-dimethyl-6-oxo-l-cyclohexenyl)methylcarbamoyl-5-fluorouracil) • Method : 1 x 10^6 leukemia P 388 cells per mouse were implanted subcutaneously to female mice (CDFl-SLC strain, 18-21 g of weight). The control and test group consisted of 3 and 1 mice respectively. The compound No.l and 5-FU were dissolved in 100% dimethylsulfoxide respectively to be adjusted to various concentrations. The solution was administered orally to each mouse once daily for 5 consecutive days, starting 24 hours after the implantation.
Average period in days of survival in the group receiving the compound of this invention (T) and average period in days of survival in the control group (C) were determined to calculate survival rates (T/C x 100%).

`CC1(C)CC=C(CNC(=O)n2cc(F)c(=O)[nH]c2=O)C(=O)C1` [Compound No.1, 1-(4,4-dimethyl-6-oxo-l-cyclohexenyl)methylcarbamoyl-5-fluorouracil] was tested, and the “Survival Rate (T/C x 100)” value (Dose 25 mg/kg/inj) was 115%, the “Survival Rate (T/C x 100)” value (Dose 50 mg/kg/inj) was 129% and the “Survival Rate (T/C x 100)” value (Dose 100 mg/kg/inj) was 151%. The “Survival Rate (T/C x 100)” value (Dose 200 mg/kg/inj) was 122%, the “Survival Rate (T/C x 100)” value (Dose 400 mg/kg/inj) was 71.9% and the “toxicity compared with 5-FU” value (conclusion from the dose range in the P388 mouse model, oral) was “less toxic than 5-FU”.
`O=c1[nH]cc(F)c(=O)[nH]1` [5-FU, 5-Fluorouracil] was tested, and the “Survival Rate (T/C x 100)” value (Dose 2.7 mg/kg/inj) was 101%, the “Survival Rate (T/C x 100)” value (Dose 5.3 mg/kg/inj) was 103% and the “Survival Rate (T/C x 100)” value (Dose 10.5 mg/kg/inj) was 103%. The “Survival Rate (T/C x 100)” value (Dose 21 mg/kg/inj) was 115%, the “Survival Rate (T/C x 100)” value (Dose 42 mg/kg/inj) was 64.7% and the “Survival Rate (T/C x 100)” value (Dose 84 mg/kg/inj) was 52.5%.
